For series [1] the following is noted: cited from earlier work; for water solubility: background statement.
Series [2] has as its system Taxol resistant cell line. The series is described as follows: cytopathic effects on Taxol resistant cell line (FIG. 10, 11). To be noted: 5 microgram/ml Taxol, FIG. 11. It is filed as cell-based. The source says:
FIG. 10A. A taxol resistant cell line without treatment (in vitro) showing aggressive growth. FIG. 10B. The same cell line treated with the hybrid taxol, showing cytopathic effects.
On the technique in general: Cytopathic effects are the visible damage that an infection or toxin causes in cultured cells.

In brackets after ≈: the same amount, converted by molar mass.

Take `CC1=C(/C=C/C(C)=C/C=C/C(C)=C/C(=O)O)C(C)(C)CCC1` [All-trans-retinoic acid]: the “water solubility” value in series [1] is on record as “not water-soluble”.
In the case of `C=C(c1ccc(C(=O)O)cc1)c1cc2c(cc1C)C(C)(C)CCC2(C)C` [Bexarotene], the “solubility in DMSO” value in series [1] (DMSO) was 65 mg/mL (≈ 187 mM). Also, in series [1], the “water solubility” value is listed as “poorly soluble in water”. Besides, the solubility in water in series [1] (estimated) was 10 to 50 µM. Moreover, the solubility in ethanol in series [1] (ethanol, with warming) is recorded as 10 mg/mL (≈ 28.7 mM).
Consider `CC(=O)O[C@H]1C(=O)[C@@]2(C)[C@H]([C@H](OC(=O)c3ccccc3)[C@]3(O)C[C@H](OC(=O)[C@H](O)[C@@H](NC(=O)c4ccccc4)c4ccccc4)C(C)=C1C3(C)C)[C@]1(OC(C)=O)CO[C@@H]1C[C@@H]2O` [Taxol, paclitaxel], for which, in series [2], the “cytopathic effects at very low concentration” value was “cytopathic effects are observed”. Besides, the “water solubility” value in series [1] is “very poorly water-soluble”.

These data come from patent US9895322B2, “Pharmaceutical compositions for the delivery of substantially water-insoluble drugs” (priority 2012, dated 2018).
